Results on 5 compounds are retold here after patent US20240261398A1 (priority 2018, published 2024).

The subject of test [1] is A/California/07/2009 virus (H1N1; CA07). More on the design: species or system BALB/c mice. To be noted: mouse, in vivo.
For test [2] the test system is unchanged. More on the design: species or system BALB/c mice. To be noted: mouse, in vivo. The source holds these as a separate data set.
In a further test the test system is influenza virus. In kind it is in vivo, mice.
In the next test the test system is Ebola GP protein. The format is in vivo, BALB/c mice.
Where [3] appears, read: nasal immunization with vaccine + compound, 100 μg/dose (saponin 10 μg/dose), Day 0, 14, 28.

Each structure is given as a SMILES string. Read-outs that look alike come from different tables or passages of the source.

For the compound `Cc1cc2nc3c(=O)[nH]c(=O)nc-3n(C[C@H](O)[C@H](O)[C@H](O)CO)c2cc1C` [Riboflavin], the “Antibody titers in secondary screening, Vaccine + compound” value (“Antibody titers in secondary screening” for short) in test [1] is reported as 2240. In addition, the “Antibody titers in primary screening, Vaccine + compound” value (shortened to “Antibody titers in primary screening”) in test [2] stood at 2560.00. The “Antibody titers (IgG)” value in the test on influenza virus (setting [3]) came to 880.

Turning to `O.O=P([O-])([O-])OCC(O)CO.[Ca+2]` (stereo not shown), in test [1], the “Antibody titers in secondary screening” value is given as 4800 and the “Relative ratio of antibody titer to alum (compound/alum), secondary screening” value was 3.33. In addition, in test [2], the “Antibody titers in primary screening” value came out at 1920.00 and the “Relative ratio of antibody titer to alum (compound/alum), primary screening” value was found to be 1.71. The “Antibody titers (IgG)” value in the test on influenza virus (mouse, in vivo) is reported as 261.25.

In the case of `CCO` [Ethanol], in test [1], the “Mean value of antibody titers, Only compound” value is below 10; the “Mean value of antibody titers, Vaccine + compound” value is on record as 400.00; the “Relative ratio of antibody titer to alum (Compound/alum)” value was found to be 0.56. Further, the “Mean value of antibody titers, Vaccine + compound” value with Ebola GP protein (Ebola VLP 1 μg/dose + compound, i.m. twice, serum two weeks after second immunization, mean of 4 mice) worked out at 140.00. Besides, in the test with Ebola GP protein ([VLP + candidate compound]/[VLP + AddaVax]), the “Antibody titer ratio (a)” value stood at 0.23. The “Mean value of antibody titers, Only compound (c)” value with Ebola GP protein (compound alone, mice treated as in the influenza adjuvant screening) is recorded as below 10.

With `CC(/C=C/C=C(C)/C=C/C(=O)O)=C\C=C\C=C(C)\C=C\C=C(C)\C=C\C(=O)O` (stereo in doubt) [Norbixin], in test [1], the “Relative ratio of antibody titer to alum (compound/alum), secondary screening” value amounted to 5.14 and the “virus-specific antibody titers compared with the alum adjuvant” value is “equal to or higher than the alum adjuvant did”. In test [2], the “Antibody titers in primary screening” value was 7680.00 and the “Relative ratio of antibody titer to alum (compound/alum), primary screening” value stood at 8.00. In addition, the “Antibody titers (IgG)” value in the test on influenza virus (mouse, in vivo) stood at 340.

With `C[C@@H]1O[C@@H](OC[C@H]2O[C@@H](Oc3c(-c4ccc(O)c(O)c4)oc4cc(O)cc(O)c4c3=O)[C@H](O)[C@@H](O)[C@@H]2O)[C@H](O)[C@H](O)[C@H]1O` [Rutin hydrate], in test [1] (hydrate), the “Antibody titers in secondary screening” value was 720. In addition, the “Antibody titers in primary screening” value in test [2] (hydrate) is on record as 1280.00. Also, the “Antibody titers (IgG)” value in the test with influenza virus (setting [3]) was found to be 280.
